Data from patent publication US20160154928A1, “SYSTEMS, METHODS, AND ENVIRONMENT FOR AUTOMATED REVIEW OF GENOMIC DATA TO IDENTIFY DOWNREGULATED AND/OR UPREGULATED GENE EXPRESSION INDICATIVE OF A DISEASE OR CONDITION” (IMMUNEERING CORPORATION, priority 2013, published 2016).
Several values for one entry are separate records, joined by “and”; a condition that tells them apart may be missing. Equal entries are not always repeated.

Legend:
[1] = test system: female mouse model of AD; conditions: cited from earlier work
[2] = test system: NEUROD6 expression; assay: CMAP (Connectivity Map) expression profiles of cultured cells treated with compounds, searched for increased NEUROD6 expression (single-sample Wilcox test); format: cell-based; conditions: for p.val (compounds identified to upregulate enriched NEUROD6 expression): single-sample Wilcox test on CMAP expression profiles, cultured cells after treatment
Source text: The full CMAP (builds 01 and 02) datasets were obtained from the Broad Institute. […] The output p-values were adjusted for multiple hypothesis testing (FDR p value <0.05).

[3] = test system: SNAP25 expression; assay: CMAP (Connectivity Map) expression profiles of cultured cells treated with compounds, searched for increased SNAP25 expression (single-sample Wilcox test); format: cell-based
Source text: The CMAP dataset is a large collection of microarray-based transcriptional signatures that includes over 7,000 expression profiles from cultured cells treated with 1,309 compounds. The full CMAP (builds 01 and 02) datasets were obtained from the Broad Institute. […] The output p-values were adjusted for multiple hypothesis testing (FDR p value <0.05).

[4] = test system: mouse model of AD; conditions: cited from earlier work
[5] = test system: mouse models of AD; conditions: cited from earlier work

In the case of `O=CC[C@@H](O)[C@H](O)[C@H](O)CO` [2-deoxy-D-glucose], the pathology [1] is listed as “reduce pathology”.

In the case of `CC(C)c1ccc2c(c1)c(SC(C)(C)C)c(CC(C)(C)C(=O)O)n2Cc1ccc(Cl)cc1` [MK-886], the “p.val (compounds identified to upregulate enriched NEUROD6 expression)” value [2] was 2.46E−04.

With `CN(C(=O)C(Cl)Cl)c1ccc(O)cc1` [diloxanide] the “p.val (compounds identified to upregulate enriched SNAP25 expression)” value ([3]; single-sample Wilcox test on CMAP expression profiles, cultured cells after treatment) was 1.28E−04.

In the case of `O=c1c(-c2ccc(O)cc2)coc2cc(O)cc(O)c12` [genistein], the “effect on NEUROD6 expression” value ([2]; CMAP analysis, in words) was “significantly elevate expression of NEUROD6”.

For `CCN1C[C@]2(C)CC[C@H](O)[C@]34C1[C@@H](C[C@H]23)[C@@]1(O)C[C@H](OC)[C@H]2C[C@@H]4[C@@H]1[C@H]2O` [karakoline], the cognitive function [4] is listed as “improve cognitive function”.

In the case of `C=C1C[C@@H](O)[C@H](/C=C/[C@@H](O)C(C)(C)CCCC)[C@H]1C/C=C\CCCC(=O)O` [meteneprost], the “p.val (compounds identified to upregulate enriched NEUROD6 expression)” value [2] was 2.05E−04.

With `C[C@@H]1C[C@H]2O[C@@H]2/C=C\C=C\C(=O)Cc2c(Cl)c(O)cc(O)c2C(=O)O1` [monorden] the “p.val (compounds identified to upregulate enriched NEUROD6 expression)” value [2] was 2.17E−04 and 2.82E−04.

For `CCCC(CCC)C(=O)O` [valproic acid], the “effect on SNAP25 expression” value ([3]; CMAP analysis, in words) is listed as “significantly elevate SNAP25 expression”, the Aβ production [5] is listed as “limit Aβ production” and the behavioral deficits [5] is listed as “limit Aβ production and behavioral deficits”. For the same compound, the loss of neurons [5] was “protect against loss of neurons”.
